Patent publication EP0463456A1, “Phosphorus-containing HMG-CoA reductase inhibitors, new intermediates and their use” (E.R. SQUIBB & SONS, INC., priority 1990, dated 1992)

Target: T1, freshly isolated rat hepatocyte suspensions (Rattus norvegicus, UniProt P51639)
T1 sequence (P51639 1-887): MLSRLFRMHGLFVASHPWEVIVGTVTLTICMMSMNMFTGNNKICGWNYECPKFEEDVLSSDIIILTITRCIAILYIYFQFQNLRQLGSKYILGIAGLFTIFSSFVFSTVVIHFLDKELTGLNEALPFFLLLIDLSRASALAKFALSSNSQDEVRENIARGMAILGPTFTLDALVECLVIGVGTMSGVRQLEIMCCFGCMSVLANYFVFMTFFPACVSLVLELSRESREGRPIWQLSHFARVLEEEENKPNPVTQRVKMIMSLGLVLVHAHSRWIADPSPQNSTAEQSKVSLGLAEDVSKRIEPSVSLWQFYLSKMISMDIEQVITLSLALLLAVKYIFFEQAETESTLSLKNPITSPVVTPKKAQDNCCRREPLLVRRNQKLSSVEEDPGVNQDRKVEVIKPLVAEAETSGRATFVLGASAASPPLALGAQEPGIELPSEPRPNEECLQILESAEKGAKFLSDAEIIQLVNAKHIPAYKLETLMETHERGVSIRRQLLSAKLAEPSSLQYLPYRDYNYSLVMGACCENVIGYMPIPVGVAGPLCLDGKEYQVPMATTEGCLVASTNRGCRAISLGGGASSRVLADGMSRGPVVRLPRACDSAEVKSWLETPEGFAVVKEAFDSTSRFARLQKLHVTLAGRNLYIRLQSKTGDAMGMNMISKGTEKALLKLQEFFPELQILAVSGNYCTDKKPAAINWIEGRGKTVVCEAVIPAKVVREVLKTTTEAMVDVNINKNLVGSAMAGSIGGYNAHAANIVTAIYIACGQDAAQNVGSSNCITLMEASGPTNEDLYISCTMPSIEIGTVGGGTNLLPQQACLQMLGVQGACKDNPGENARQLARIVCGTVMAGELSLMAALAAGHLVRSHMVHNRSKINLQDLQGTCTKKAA
Assay: Cholesterol Synthesis in Freshly Isolated Rat Hepatocytes (14C-acetate incorporation into cholesterol)
Format: cell-based
Details: inhibition of 14C-acetate incorporation into cholesterol; 2.0 hours at 37° C; read-out: Hepatocytes 150
Description: 2) Cholesterol Synthesis in Freshly Isolated Rat Hepatocytes […]
a. Isolation of Rat Hepatocytes
Sprague Dawley rats (180-220 grams) are anesthetized with Nembutol (50 mg/kg). The abdomen is opened and the first branch of the portal vein is tied closed. Heparin (100-200 units) is injected directly into the abdominal vena cava. A single closing suture is placed on the distal section of the portal vein, and the portal vein is canulated between the suture and the first branching vein. The liver is perfused at a rate of 20 ml/minute with prewarmed (37° C), oxygenated buffer A (HBSS without calcium or magnesium containing 0.5 mM EDTA) after severing the vena cava to allow drainage of the effluent. The liver is additionally perfused with 200 ml of prewarmed buffer B (HBSS containing 0.05% bacterial collagenase). […] Pelleted hepatocytes are washed once in Waymouth's medium, counted and assayed for viability by trypan blue exclusion. […]
Lipids are extracted essentially as described by Bligh, E. G. and W. J. Dyer, Can. […] Plates are scanned and counted using a BioScan automated scanning system. Radiolabel in the cholesterol peak (RF 0.28) is determined and expressed at total counts per peak and as a percent of the label in the total lipid extract. […]
Drug effects (% inhibition of cholesterol synthesis) are determined by comparing % of label in cholesterol for control and drug treated cultures. […]

(S)-4-[[[4-(4-Fluorophenyl)-1,2-bis(1-methylethyl)-5-phenyl-1H-pyrrol-3-yl]-ethynyl]hydroxyphosphinyl]-3-hydroxybutanoic acid, dilithium salt [SQ 34,346]
IC50: 0.078 µM
